Experimental data published in patent US4284639A, “Combating fungi with 1-phenoxy-2-(2,4-dichlorophenyl)-1-(1,2,4-triazol-1-yl)-ethan-2-ones and -ols” (Bayer Aktiengesellschaft, priority 1977, dated 1981).
Converted amounts (≈) assume the structure as drawn. Read-outs that look alike come from different tables or passages of the source.

Columns and labels:
Trichophyton mentagr. = assay: Anti-mycotic in vitro activity, series dilution test; assay type: cell-based, Trichophyton mentagrophytes; conditions: read-out: Minimum inhibitory concentration
Description: (§1) The in vitro tests were carried out in a series dilution test with germ inocula of an average of 5×10^4 germs/ml of substrate. The nutrient medium was (a) for dermatophytes and moulds: Sabouraud's milieu d'epreuve and (b) for yeasts; meat extract/glucose broth.
(§2) The incubation temperature was 28° C. and the duration of incubation was 24 to 96 hours.

Puccinia recondita = assay: Shoot treatment test/cereal rust (leaf-destructive mycosis)/protective; assay type: in vivo; conditions: 0.025 % by weight active compound in the spray liquor; wheat; after 10 days; protective
Description: (§3) To produce a suitable preparation of active compound, 0.25 part by weight of active compound was taken up in 25 parts by weight of dimethylformamide and 0.06 part by weight of alkylaryl polyglycol ether and then 975 parts by weight of water were added. The concentrate was diluted with water to the desired final concentration of the spray liquor.
To test the protective activity, one-leaved young wheat plants of the Michigan Amber variety were inoculated with a uredospore suspension of Puccinia recondita in 0.1% strength aqueous agar. After the spore suspension had dried on, the wheat plants were sprayed with the preparation of active compound until dew-moist and were placed, for incubation, in a greenhouse for 24 hours at about 20° C. and 100% relative atmospheric humidity.
After 10 days' dwell time of the plants at a temperature of 20° C. and 80-90% atmospheric humidity, the occurrence of rust pustules on the plant was evaluated. The degree of infection was expressed as a percentage of the infection of the untreated control plants. 0% denoted no infection and 100% denoted the same degree of infection as in the case of the untreated control.

Torulopsis glabrata = assay: Anti-mycotic in vitro activity, series dilution test; assay type: cell-based; conditions: Nakaseomyces glabratus; γ/ml of nutrient medium; 28° C.; 24 to 96 hours; read-out: Minimum inhibitory concentration
Description: as §1, §2

Aspergillus species = assay: as above; assay type: cell-based; conditions: read-out: Minimum inhibitory concentration
Description: as §1, §2

Penicillium commune = assay: as above; assay type: cell-based; conditions: read-out: Minimum inhibitory concentration
Description: as §1, §2

Candida albicans = assay: as above; assay type: cell-based; conditions: read-out: Minimum inhibitory concentration
Description: as §1, §2

[1] = tested on: Erysiphe graminis var. hordei; assay: Shoot treatment test/powdery mildew of cereal/protective (leaf-destructive mycosis); assay type: in vivo; conditions: 0.025 % by weight active compound in the spray liquor; barley; after 6 days; protective
Description: as §3, with “ether;” for “ether and then”, “were then” for “were”
To test for protective activity, single-leaved young barley plants of the Amsel variety were sprayed with the preparation of active compound until dew-moist. After drying, the barley plants were dusted with spores of Erysiphe graminis var. hordei.
After 6 days' dwell time of the plants at a temperature of 21°-22° C. and 80-90% atmospheric humidity the occurrence of mildew pustules on the plants was evaluated. The degree of infection was expressed as a percentage of the infection of the untreated control plants. 0% denoted no infection and 100% denoted the same degree of infection as in the case of the untreated control.

Erysiphe cicohiacearum = assay: Erysiphe test (cucumber)/protective; assay type: in vivo; conditions: cucumber plants, after 12 days, protective
Description: (§4) Solvent: 4.7 parts by weight of acetone
(§5) Emulsifier: 0.3 part by weight of alkylaryl polyglycol ether
(§6) Water: 95 parts by weight
The amount of the active compound required for the desired concentration of active compound in the spray liquid was mixed with the stated amount of solvent and the concentrate was diluted with the stated amount of water containing the stated amount of emulsifier.
Young cucumber plants with about three foliage leaves were sprayed with the spray liquid until dripping wet. The cucumber plants remained in a greenhouse for 24 hours to dry. They were then, for the purpose of inoculation, dusted with conidia of the fungus Erysiphe cicohiacearum. The plants were subsequently placed in a greenhouse at 23°-24° C. and at a relative atmospheric humidity of about 75%.
After 12 days, the infection of the cucumber plants was determined. The assessment data were converted to percent infection. 0% meant no infection; 100% meant that the plants were totally infected.

Podosphaera leucotricha = assay: Podosphaera test (apple)/protective; assay type: in vivo; conditions: apple seedlings, 10 days after inoculation, protective
Description: as §4, §5, §6
The amount of active compound required for the desired concentration of the active compound in the spray liquid was mixed with the stated amount of solvent, and the concentrate was diluted with the stated amount of water which contained the stated amount of emulsifier.
Young apple seedlings in the 4-6 leaf stage were sprayed with the spray liquid until dripping wet. The plants remained in a greenhouse for 24 hours at 20° C. and at a relative atmospheric humidity of 70%. They were then inoculated by dusting the conidia of the apple powdery mildew causative organism (Podosphaera leucotricha) and placed in a greenhouse at a temperature of 21°-23° C. and at a relative atmospheric humidity of about 70%.
10 days after the inoculation, the infection of the seedlings was determined. The assessment data were converted to % infection. 0% meant no infection; 100% meant that the plants were completely infected.

Microsporon felineum = assay: Anti-mycotic in vitro activity, series dilution test; assay type: cell-based; conditions: read-out: Minimum inhibitory concentration
Description: as §1, §2

[2] = γ/ml of nutrient medium, 28° C., 24 to 96 hours

SMILES | MIC (Trichophyton mentagr.; [2]) | MIC (Aspergillus species; [2]) | MIC (Penicillium commune; [2]) | MIC (Candida albicans; [2]) | Infection in % of the untreated control [1] | MIC (Microsporon felineum; [2]) | further results
O=C(c1ccc(Cl)cc1Cl)C(Oc1ccc(-c2ccccc2)cc1)n1cncn1 (stereo not shown) [Compound 5] | < 1 mg/L | > 64 mg/L | > 64 mg/L | 32 mg/L (≈ 75.4 µM) |  |  | Infection in % of the untreated control (Puccinia recondita): 10.0%; MIC (Torulopsis glabrata): 32 mg/L (≈ 75.4 µM)
CC(C)(C)C(=O)C(Oc1ccc(-c2ccc(Cl)cc2)cc1)n1cncn1 (stereo not shown) [A, reference compound] |  |  |  |  | 55.0% |  | 
OC(c1ccccc1)C(Oc1ccc(Cl)cc1)n1cncn1 (stereo not shown) [K, reference compound] | 64 mg/L (≈ 203 µM) |  | > 64 mg/L | 64 mg/L (≈ 203 µM) |  |  | 
CC(C)(C)C(O)C(Oc1ccc(-c2ccccc2)cc1)n1cncn1 (stereo not shown) [E, reference compound] |  |  |  |  |  |  | Infection in % at an active compound concentration of 0.00025% (Erysiphe cicohiacearum): 62%
Cl.O=C(c1ccc(Cl)cc1Cl)C(Oc1ccc(Cl)cc1)n1cncn1 (stereo not shown) [Compound 2, 1-(4-Chlorophenoxy)-2-(2,4-dichlorophenyl)-1-(1,2,4-triazol-1-yl)-ethan-2-one hydrochloride] | 4 mg/L | > 64 mg/L | > 64 mg/L | 32 mg/L | 0.0% | 32 mg/L | Infection in % at an active compound concentration of 0.001% (Podosphaera leucotricha): 25%; Infection in % of the untreated control (Puccinia recondita): 12.5%; Infection in % at an active compound concentration of 0.00025% (Erysiphe cicohiacearum): 12%
O=C(c1ccc(Cl)cc1Cl)C(Oc1ccc(-c2ccc(Cl)cc2)cc1)n1cncn1 (stereo not shown) [Compound 6] |  |  |  |  | 16.3% |  | 
O=C(c1ccc(Cl)cc1)C(Oc1ccc(Cl)cc1Cl)n1cncn1 (stereo not shown) [G, reference compound] |  |  | > 100 mg/L |  |  |  | 
CC(C)(C)C(=O)C(Oc1ccc(Cl)cc1)n1cncn1 (stereo not shown) [D, reference compound] |  |  |  |  |  |  | Infection in % at an active compound concentration of 0.001% (Podosphaera leucotricha): 42%; MIC (Trichophyton mentagr.): 4 mg/L (≈ 13.6 µM); MIC (Microsporon felineum): 100 mg/L (≈ 340 µM); MIC (Aspergillus species): 100 mg/L (≈ 340 µM); MIC (Penicillium commune): > 100 mg/L; MIC (Candida albicans): 40 mg/L (≈ 136 µM)
CC(C)(C)C(=O)C(Oc1ccc(-c2ccccc2)cc1)n1cncn1 (stereo not shown) [B, reference compound] |  |  |  |  |  |  | Infection in % of the untreated control (Puccinia recondita): 33.8%
COC(=O)c1ccc(OC(C(O)C(C)(C)C)n2cncn2)cc1 (stereo not shown) [H, reference compound] | 4 mg/L (≈ 12.5 µM) | > 64 mg/L | > 64 mg/L | 64 mg/L (≈ 200 µM) |  | 64 mg/L (≈ 200 µM) | 
OC(c1ccc(Cl)cc1Cl)C(Oc1ccc(Cl)cc1Cl)n1cncn1 (stereo not shown) [Compound 14] | 4 mg/L (≈ 9.54 µM) | 64 mg/L (≈ 153 µM) | > 64 mg/L | 8 mg/L (≈ 19.1 µM) | 0.0% | 32 mg/L (≈ 76.4 µM) | Infection in % at an active compound concentration of 0.001% (Podosphaera leucotricha): 0%; MIC (Torulopsis glabrata): 32 mg/L (≈ 76.4 µM); Infection in % at an active compound concentration of 0.00025% (Erysiphe cicohiacearum): 16%
OC(c1ccc(Cl)cc1Cl)C(Oc1ccc(-c2ccc(Cl)cc2)cc1)n1cncn1 (stereo not shown) [Compound 16] | < 1 mg/L | > 64 mg/L | > 64 mg/L | 8 mg/L (≈ 17.4 µM) | 37.5% | 4 mg/L (≈ 8.68 µM) | MIC (Torulopsis glabrata): 1 mg/L (≈ 2.17 µM)
Cl.OC(c1ccc(Cl)cc1Cl)C(Oc1ccc(Cl)cc1)n1cncn1 (stereo not shown) [Compound 3, 1-(4-chlorophenoxy)-2-(2,4-dichlorophenyl)-1-(1,2,4-triazol-1-yl)-ethan-2-ol hydrochloride] | 4 mg/L | 64 mg/L | > 64 mg/L | 8 mg/L | 7.5% | 32 mg/L | Infection in % at an active compound concentration of 0.001% (Podosphaera leucotricha): 0%; Infection in % at an active compound concentration of 0.00025% (Erysiphe cicohiacearum): 6%
CC(C)(C)C(O)C(Oc1ccc(Cl)cc1Cl)n1cncn1 (stereo not shown) [C, reference compound] |  |  |  |  |  |  | Infection in % of the untreated control (Puccinia recondita): 33.8%
O=C(c1ccc(Cl)cc1Cl)C(Oc1ccc(Cl)cc1Cl)n1cncn1 (stereo not shown) [Compound 4] |  |  |  |  | 0.0% |  | 
OC(c1ccc(Cl)cc1Cl)C(Oc1ccc(-c2ccccc2)cc1)n1cncn1 (stereo not shown) [Compound 15] | < 1 mg/L | > 64 mg/L | > 64 mg/L | 32 mg/L (≈ 75.1 µM) | 37.5% | < 1 mg/L | MIC (Torulopsis glabrata): 1 mg/L (≈ 2.35 µM); Infection in % at an active compound concentration of 0.00025% (Erysiphe cicohiacearum): 12%
CC(C)(C)C(=O)C(Oc1ccc(Cl)cc1Cl)n1cncn1 (stereo not shown) [F, reference compound] | 4 mg/L (≈ 12.2 µM) | 100 mg/L (≈ 305 µM) | > 100 mg/L | 40 mg/L (≈ 122 µM) |  | 100 mg/L (≈ 305 µM) | 
